Test results as given in paper PMC7942396, “Drug Repurposing Screen for Compounds Inhibiting the Cytopathic Effect of SARS-CoV-2” (Frontiers in Pharmacology, 2021).
Counter-ions that a name gives are not always drawn. Like-named read-outs stand apart in the source and are kept apart here. *1 amine or outer side, *2 acyl side, *3 side chain or, on linkers, in order; H or OH if unused. Where a SMILES comes first, the peptide text is derived from it. Bridges are numbered along the chain shown (N, C = ends). [ ]: non-standard residue; d: D form. The star is where a group is joined. pTerphenylCO(4''-OnC5H11) = CCCCCOc1ccc(-c2ccc(-c3ccc(C(=O)*)cc3)cc2)cc1; Orn(4R-OH,5R-OH) = O=C([C@H](C[C@@H](O)[C@@H](O)N[*:3])N[*:1])[*:2]; hTyr(3S-OH,4S-OH) = N[C@H](C(=O)O)[C@H](O)[C@@H](O)c1ccc(O)cc1; Pro(3S-OH,4S-Me) = C[C@H]1CN[C@H](C(=O)O)[C@H]1O; Hyp = O=C(O)[C@@H]1C[C@@H](O)CN1

Assays:
[1] = tested on: SARS-CoV-2 (USA_WA1/2020); experiment: microbe, parasite or virus in culture; type: cell-based
[2] = in vitro; details: African green monkey
[3] = Severe acute respiratory syndrome coronavirus 2, Vero C1008, SARS-CoV-2 CPE assay, Vero E6 cells, read-out: CPE % Efficacy
[4] = Severe acute respiratory syndrome coronavirus 2, Vero C1008, SARS-CoV-2 CPE assay, Vero E6 cells, read-out: CPE EC50
[5] = Severe acute respiratory syndrome coronavirus 2, Vero C1008, SARS-CoV-2 CPE assay, Vero E6 cells, confirmed anti-SARS-CoV-2 compounds, read-out: CPE EC50
[6] = Severe acute respiratory syndrome coronavirus 2, Vero C1008, SARS-CoV-2 CPE assay, Vero E6 cells, efficacy, read-out: CPE % Efficacy
[7] = Severe acute respiratory syndrome coronavirus 2, Vero C1008, 72 h, read-out: CPE EC50
[8] = Severe acute respiratory syndrome coronavirus 2, Vero C1008, […], DMSO 0%, no-virus control 100%, hit confirmation, read-out: CPE % efficacy

SMILES	CC50 [2] [µM]	cytotoxicity [2] [%]	EC50 [1, 5] [µM]	Emax [1, 6] [%]	cytotoxicity at 72 h [2] [%]	other results
O=C(Nc1ccc(-c2ccnc(Nc3ccc(N4CCOCC4)cc3)n2)cc1)C1CCCN1 (stereo not drawn) [XL019]	8.91	61.8				Emax [1, 3]: 53.9%; EC50 [1, 4]: 14.1 µM
CCCCCOc1ccc(-c2ccc(-c3ccc(C(=O)N[C@H]4C[C@@H](O)[C@@H](O)NC(=O)[C@@H]5[C@@H](O)[C@@H](C)CN5C(=O)[C@H]([C@@H](C)O)NC(=O)[C@H]([C@H](O)[C@@H](O)c5ccc(O)cc5)NC(=O)[C@@H]5C[C@@H](O)CN5C(=O)[C@H]([C@@H](C)O)NC4=O)cc3)cc2)cc1 [Anidulafungin] ({pTerphenylCO(4''-OnC5H11)}-[Orn(4R-OH,5R-OH)]T[Hyp][hTyr(3S-OH,4S-OH)]T[Pro(3S-OH,4S-Me)]; lactam 1-C)	8.75	33.7	6.95	68.4		
CN(C)[C@@H](CCOc1cccc2ccccc12)c1ccccc1 [Dapoxetine]			10	82.6	32	
CCCCOc1cc(C(=O)NCCN(CC)CC)c2ccccc2n1 [Dibucaine]					0	Emax [1, 3]: 61.8%; EC50 [1, 4]: 12.6 µM
NC(=O)c1cnc(N[C@@H]2CCCC[C@@H]2N)nc1Nc1cccc(-n2nccn2)c1 [PRT-062607]		24.9	11.2	66.4		
CN(C)c1cc2c(cc1Sc1nc3c(N)nccc3n1CCNCC(C)(C)C)OCO2 [CUDC-305]			2.51	74.5	27.7	CC50 at 72 h [2]: 0.71 µM
CNCc1ccc(-c2cc(-c3nc(-c4ccc(S(=O)(=O)C(C)C)cc4)cnc3N)on2)cc1 [Berzosertib, reference compound]						Shape of concentration-response in the CPE assay ([1]; Figure 3): bell-shaped concentration-responses due to cytotoxicity; EC50 [1, 7]: 0.71 µM; Emax [1, 8]: 87.9%; CC50 at 72 h [2]: 11.2 µM
CCCCCCC(C)(C)c1cc(O)c2c(c1)OC(C)(C)[C@H]1CC=C(CO)C[C@H]21 [Dexanabinol, reference compound]		< 30				EC50 [1, 7]: 10 µM; Emax [1, 8]: 111%
CC(C)[C@@]1(NC(=O)[C@@H]2C[C@@H]3c4cccc5[nH]cc(c45)C[C@H]3N(C)C2)O[C@@]2(O)[C@@H]3CCCN3C(=O)[C@H](Cc3ccccc3)N2C1=O [Dihydroergocristine]	15.8	11.5				Emax [1, 3]: 32%; EC50 [1, 4]: 14.1 µM
Nc1nc(Nc2ccc3c(c2)CC[C@@H](N2CCCC2)CC3)nn1-c1cc2c(nn1)-c1ccccc1CCC2 [Bemcentinib]			3.55	69.6	115	CC50 at 72 h [2]: 11.2 µM
Cc1ccc(NC(=O)Nc2cc(C(F)(F)F)ccc2F)cc1Nc1ccc2c(c1)NC(=O)/C2=C\c1ccc[nH]1 [GNF-5837]	8.91	61.4	3.16	84		
CN1CCCCC1CCN1c2ccccc2Sc2ccc([S+](C)[O-])cc21 (stereo not drawn) [Mesoridazine]	15.8	16.1				Emax ([1]; Severe acute respiratory syndrome coronavirus 2, Vero C1008, read-out: CPE % Efficacy): 43.5%; EC50 ([1]; Severe acute respiratory syndrome coronavirus 2, Vero C1008, read-out: CPE EC50 (uM)): 12.6 µM
CCCN1CCN(c2ccc(C(=O)NC3(C(=O)NCC#N)CCCCC3)cc2)CC1 [Balicatib, reference compound]					< 30	EC50 [1, 7]: 2 µM; Emax [1, 8]: 100%
CC(C)COCC(CN(Cc1ccccc1)c1ccccc1)N1CCCC1 (stereo not drawn) [Bepridil]	22.4	25.4	11.2	113		
Cn1c(NC[C@@H](N)Cc2ccccc2)nc(-c2ccncc2)c(-c2ccc3ccccc3c2)c1=O [AMG-548]			8.91	75	35.4	CC50 at 72 h [2]: 17.8 µM
Oc1c(I)cc(Cl)c2cccnc12 [Clioquinol]			6.31	55.1	62.2	CC50 at 72 h [2]: 3.16 µM
S=C(NCc1ccc2c(c1)OCO2)N1CCN(c2ncnc3c2oc2ccccc23)CC1 [Amuvatinib]	3.16	30.1	3.55	69.8		
O=c1c2ccccc2[se]n1-c1ccccc1 [Ebselen]			11.2	38.1	0	

SMILES	CC50 [2] [µM]	cytotoxicity [2] [%]	EC50 [1, 5] [µM]	Emax [1, 6] [%]	cytotoxicity at 72 h [2] [%]	other results
CCOC(=O)c1c(CSc2ccccc2)n(C)c2cc(Br)c(O)c(CN(C)C)c12 [Arbidol]	12.6	17.3	11.2	105		
N#Cc1ccc2[nH]cc(CCCCN3CCN(c4ccc5oc(C(N)=O)cc5c4)CC3)c2c1 [Vilazodone Hydrochloride]					25.3	Emax [1, 3]: 90.8%; EC50 [1, 4]: 12.6 µM; CC50 at 72 h [2]: 19.9 µM
COC(=O)[C@@]12OC[C@]34[C@H]([C@@H](O)[C@@H]1O)[C@@]1(C)CC(=O)C(O)=C(C)[C@@H]1C[C@H]3OC(=O)[C@H](OC(=O)/C=C(\C)C(C)C)[C@@H]24 [Bruceantin]	0.14	83.3	0.0319	42.5		
Cn1c(Nc2ccc(C(F)(F)F)cc2)nc2cc(Oc3ccnc(-c4ncc(C(F)(F)F)[nH]4)c3)ccc21 [CHIR-265]	0.32	92.7	0.79	31.7		
CCOC(=O)C1=C(COCCN)NC(C)=C(C(=O)OC)C1c1ccccc1Cl (stereo not drawn) [Amlodipine]		0				Emax [1, 3]: 99.8%; EC50 [1, 4]: 12.6 µM
Cc1c(O)cccc1C(=O)N[C@@H](CSc1ccccc1)[C@H](O)CN1C[C@H]2CCCC[C@H]2C[C@H]1C(=O)NC(C)(C)C [Nelfinavir Mesylate]	12.6	96.9	3.55	106		
O=C(CCCN1CCC2(CC1)C(=O)NCN2c1ccccc1)c1ccc(F)cc1 [Spiperone]			4.47	61.2	30	CC50 at 72 h [2]: 3.55 µM
COC(=O)[C@]1(C)CC[C@]2(C)CC[C@]3(C)C4=CC=C5C(=CC(=O)C(O)=C5C)[C@]4(C)CC[C@@]3(C)[C@@H]2C1 [Pristimerin, reference compound]	1.1					EC50 [1, 7]: 0.11 µM; Emax [1, 8]: 87.4%
CCC(=O)c1ccc2c(c1)N(CCCN(C)C)c1ccccc1S2 [Propionylpromazine hydrochloride]			11.2	72.3	19.8	
COC(=O)[C@H]1[C@H]2C[C@@H]3c4[nH]c5cc(OC)ccc5c4CCN3C[C@H]2C[C@@H](OC(=O)c2cc(OC)c(OC)c(OC)c2)[C@@H]1OC [Reserpine]	19.9	13.4	11.2	91.8		
CN1CCN(CCCN2c3ccccc3Sc3ccc(S(=O)(=O)N(C)C)cc32)CC1 [Thioproperazine dimethanesulfonate]			8.91	54	19.6	CC50 at 72 h [2]: 15.8 µM
Cc1cc(O)c2c(c1)O[C@@]1(C)CC[C@H]3C(C)(C)CCC[C@]34CO[C@@H]2[C@H]41 [Siccanin]					0	Emax [1, 3]: 104%; EC50 [1, 4]: 12.6 µM
CC1(C)CC(=O)c2c(C(F)(F)F)nn(-c3ccc(C(N)=O)c(N[C@H]4CC[C@H](OC(=O)CN)CC4)c3)c2C1 [SNX-5422]	0.56	27.4	1.58	33.8		
CN(C)CCC=C1c2ccccc2CCc2ccccc21 [Amitriptyline hydrochloride]		0				Emax [1, 3]: 69.9%; EC50 [1, 4]: 14.1 µM
COCCN1CCN(Cc2ccc(-c3n[nH]c4c3C(=O)c3c(NC(=O)NN5CCOCC5)cccc3-4)cc2)CC1 [RGB-286638]			2.82	111	37.9	CC50 at 72 h [2]: 0.32 µM
CCNCCc1ccc(CN(CC)c2cc(OC)ccc2[C@@H]2CCc3cc(O)ccc3C2)cc1 [Elacestrant]			3.98	104	104	CC50 at 72 h [2]: 12.6 µM
Clc1ccc2c(c1)CCc1cccnc1C2=C1CCNCC1 [Desloratadine]		14.2				
